Reference: patent publication US20260374766A1, “METHODS FOR TREATING CANCER” (Antares Therapeutics, Inc., priority 2022, published 2026)

Tests used:
[1] = target: T1, p53 Y220C mutant protein (amino acid residues 94-293) (Homo sapiens, UniProt P04637, Y220C); test: Thermal Shift Assay (TSA), dTM; type: binding; details: thermal shift; for ΔTm at 10 µM: 10 uM compound, read-out: TSA P53 Y220C dTM (10 uM); for ΔTm at 100 µM: 100 uM compound, read-out: TSA P53 Y220C dTM (100 uM)
T1 construct: p53 Y220C mutant protein (amino acid residues 94-293)
In short: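 5 μM protein + 10 μM or 100 μM cpd, 3 h, 20 °C; 20 mM HEPES pH7.4, 100 mM NaCl, 0.01% Pluronic F-127, 1% DMSO, Sypro Orange 400-fold dil. Ramp 30→50 °C, 0.03 °C/s. TM by Boltzmann two-state fit.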

H1299 p53 Y220C = test: Cell Proliferation Assay (CellTiter-Glo, CTG), H1299 p53 Y220C (NClH1299-inducible p53 Y220C); type: cell-based; details: Homo sapiens, NCI-H1299, 120 h, CellTiter-Glo, H1299 p53 Y220C, 5 days
In short: (§1)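 NClH1299 lines stably transduced with Tet-inducible p53 Y220C or R273H, plus NUGC3, were treated with compound for 5 days at 250-500 cells/well. IC50 derived from CellTiter-Glo luminescent signal after 10 min room-temperature incubation.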

H1299 p53 R273H = test: Cell Proliferation Assay (CellTiter-Glo, CTG), H1299 p53 R273H (NClH1299-inducible p53 R273H); type: cell-based; details: Homo sapiens, NCI-H1299, 120 h, CellTiter-Glo, H1299 p53 R273H, 5 days
In short: as §1

[2] = target: T1, p53 Y220C mutant protein (amino acid residues 94-293); test: Surface Plasmon Resonance (SPR) assay, Kd_kinetic; type: binding; details: SPR, kinetic KD, p53 Y220C; read-out: SPR P53 Y220C KD kinetic
In short: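 Biacore 8K SPR; 16 or 20 °C; Tris 50 mM pH 7.5, NaCl 100 mM, DTT 1 mM, Brij35 0.01%, Tween-20 0.05%, DMSO 1%. Kd_kinetic by 1:1 fit.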

p53 Y220C = p53 Y220C (Homo sapiens, UniProt P04637, Y220C); test: Luciferase Reporter Assay (Luc), p53 response element, NClH1299 cells with inducible p53 Y220C; type: cell-based; details: luciferase reporter, NClH1299 inducible p53 Y220C, 6 hour; for Emax: 10 uM tool compound as positive control; for AC50: read-out: Luc P53 Y220C AC50
In short: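 Steps: seed 5,000 cells/well; induce mutant p53 with 0.5 ug/mL doxycycline for 24 h; treat with compound 6 h; add equal volume One-Glo, shake 5 min at room temperature; measure luciferase immediately.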

NUGC3 p53 Y220C = test: Cell Proliferation Assay (CellTiter-Glo, CTG), NUGC3 p53 Y220C; type: cell-based; details: Homo sapiens, NUGC-3, 120 h, CellTiter-Glo, NUGC3 p53 Y220C, 5 days
In short: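 Tet-One inducible p53 Y220C or R273H constructs were stably introduced into NCI-H1299 by lentiviral transduction; NUGC3 was used as is. Cells (250-500 per well) were exposed to compound for 5 days, then CellTiter-Glo was added for 10 min at room temperature and IC50 was calculated from luminescence.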

Row | Structure (SMILES) | ΔTm at 10 µM [1] [°C] | ΔTm at 100 µM [1] [°C] | IC50 (H1299 p53 Y220C) [nM] | IC50 (H1299 p53 R273H) [nM] | Kd [2] [nM] | Emax (p53 Y220C) [%] | AC50 (p53 Y220C) [nM] | IC50 (NUGC3 p53 Y220C) [nM]
1 | CNC(=O)c1ccc(NCC#Cc2nc3c(NCC4(F)CN(C)C4)cccn3c2SC(F)(F)F)c(OC)c1 [Example 181] | 5 to 10 | 5 to 10 | 750 to 1500 | 5000 to 8000 | 10 to 100 | 80 to 90 | 1500 to 3000 | 1500 to 3000
2 | CNC(=O)c1ccc(NCC#Cc2nc3c(N[C@@H]4CCC(=O)NC4)cccn3c2SC(F)(F)F)c(OC)c1 [Example 182] | 5 to 10 | 5 to 10 | 1500 to 3000 | ≥ 10000 | 10 to 100 | 80 to 90 | 1500 to 3000 | 1500 to 3000
3 | CNC(=O)c1ccc(NCC#Cc2nc3c(N[C@H]4CCC(=O)NC4)cccn3c2SC(F)(F)F)c(OC)c1 [Example 183] | 5 to 10 | 5 to 10 | 1500 to 3000 | ≥ 10000 | 10 to 100 | 80 to 90 | 1500 to 3000 | 750 to 1500
4 | CNC(=O)c1ccc(NCC#Cc2nc3c(N[C@H]4Cc5cncn5C4)cccn3c2SC(F)(F)F)c(OC)c1 [Example 184] | 5 to 10 | ≥ 10 | 1500 to 3000 | 5000 to 8000 | < 10 | 70 to 80 | 1500 to 3000 | 750 to 1500
5 | CNC(=O)c1ccc(NCC#Cc2nc3c(N[C@H]4CCc5nncn5C4)cccn3c2SC(F)(F)F)c(OC)c1 [Example 191] | 5 to 10 | ≥ 10 | > 3000 | ≥ 10000 | < 10 | < 70 | > 3000 | > 3000
6 | CNC(=O)c1ccc(OC)c(NCC#Cc2nc3c(N[C@@H]4CCNC[C@@H]4F)cccn3c2SC(F)F)n1 [Example 193] | ≥ 10 | ≥ 10 | < 750 | 8000 to 10000 | 10 to 100 | 70 to 80 | < 750 | < 750
7 | CNC(=O)c1ccc(OC)c(NCC#Cc2nn3c(N[C@@H]4CCNC[C@@H]4F)cccc3c2SC(F)F)c1 [Example 195] | ≥ 10 | ≥ 10 | < 750 | 5000 to 8000 | < 10 | 80 to 90 | < 750 | < 750
8 | CNC(=O)c1ccc(NCC#Cc2nc3c(NCC4(F)CNC4)cccn3c2SC(F)(F)F)c(OC)c1 [Example 197] | 5 to 10 | ≥ 10 | > 3000 | ≥ 10000 | 10 to 100 | 80 to 90 | > 3000 | > 3000

Now from value to compound, other results behind:

Row | ΔTm at 10 µM [1] [°C] | ΔTm at 100 µM [1] [°C] | IC50 (H1299 p53 Y220C) [nM] | IC50 (H1299 p53 R273H) [nM] | Kd [2] [nM] | Emax (p53 Y220C) [%] | AC50 (p53 Y220C) [nM] | Structure (SMILES) | IC50 (NUGC3 p53 Y220C) [nM]
9 | 5 to 10 | 5 to 10 | 750 to 1500 | 5000 to 8000 | 10 to 100 | < 70 | 1500 to 3000 | CNC(=O)c1ccc(NCC#Cc2nc3c(N[C@H]4CCn5nccc5C4)cccn3c2SC(F)(F)F)c(OC)c1 [Example 178] | 750 to 1500
10 | 5 to 10 | 5 to 10 | 1500 to 3000 | ≥ 10000 | 10 to 100 | < 70 | 1500 to 3000 | CNC(=O)c1ccc(NCC#Cc2nc3c(N[C@@H]4CCn5nccc5C4)cccn3c2SC(F)(F)F)c(OC)c1 [Example 179] | 1500 to 3000
11 | ≥ 10 | ≥ 10 | < 750 | 5000 to 8000 | < 10 | 80 to 90 | < 750 | CNC(=O)c1ccc(NCC#Cc2nc3c(N[C@@H]4CCN(C)C[C@@H]4F)cc(F)cn3c2SC(F)(F)F)c(OC)c1 [Example 180] | 750 to 1500
12 | ≥ 10 | – | < 750 | ≥ 10000 | < 10 | > 90 | < 750 | CNC(=O)c1cc(NCC#Cc2cc3c(N[C@@H]4CCN(C)C[C@@H]4F)nccn3c2SC(F)(F)F)c2nccn2c1 [Example 186, 8-{[3-(1-{[(3S,4R)-3-fluoro-1-methylpiperidin-4-yl]amino}-6-[(trifluoromethyl)sulfanyl]pyrrolo[1,2-a]pyrazin-7-yl)prop-2-yn-1-yl]amino}-N-methylimidazo[1,2-a]pyridine-6-carboxamide] | < 750
13 | ≥ 10 | ≥ 10 | < 750 | 5000 to 8000 | < 10 | 80 to 90 | < 750 | CNC(=O)c1ccc(NCC#Cc2nc3c(N[C@H]4CCC(=O)N(C)C4)cccn3c2SC(F)(F)F)c(OC)c1 [Example 187] | < 750
14 | 5 to 10 | ≥ 10 | 750 to 1500 | ≥ 10000 | 10 to 100 | 80 to 90 | 750 to 1500 | CNC(=O)c1ccc(NCC#Cc2nc3c(N[C@@H]4CCC(=O)N(C)C4)cccn3c2SC(F)(F)F)c(OC)c1 [Example 188] | 750 to 1500
15 | ≥ 10 | ≥ 10 | > 3000 | ≥ 10000 | < 10 | < 70 | > 3000 | CNC(=O)c1ccc(NCC#Cc2nc3c(N[C@@H]4CCc5nncn5C4)cccn3c2SC(F)(F)F)c(OC)c1 [Example 192] | > 3000
16 | ≥ 10 | 5 to 10 | < 750 | 5000 to 8000 | < 10 | > 90 | < 750 | CNC(=O)c1ccc(OC)c(NCC#Cc2nn3c(N[C@@H]4CCN(C)C[C@@H]4F)cccc3c2SC(F)F)c1 [Example 194] | < 750
17 | ≥ 10 | ≥ 10 | < 750 | ≥ 10000 | < 10 | > 90 | < 750 | CNC(=O)c1ccc(NCC#Cc2cc3c(N[C@@H]4CCN(C)C[C@@H]4F)nccn3c2SC(F)F)c(OC)c1 [Example 196, 4-[(3-{6-[(difluoromethyl)sulfanyl]-1-{[(3S,4R)-3-fluoro-1-methylpiperidin-4-yl]amino}pyrrolo[1,2-a]pyrazin-7-yl}prop-2-yn-1-yl)amino]-3-methoxy-N-methylbenzamide; formic acid] | < 750
18 | ≥ 10 | ≥ 10 | < 750 | < 5000 | < 10 | 70 to 80 | < 750 | CNC(=O)c1ccc(OC)c(NCC#Cc2nc3c(N[C@@H]4C[C@H]5CC[C@@H]([C@@H]4F)N5C)cccn3c2SC(F)(F)F)c1 [Example 199] | < 750
19 | ≥ 10 | ≥ 10 | < 750 | ≥ 10000 | < 10 | 70 to 80 | < 750 | CNC(=O)c1ccc(OC)c(NCC#Cc2nc3c(N[C@H]4C[C@@H]5CC[C@H]([C@H]4F)N5C)cccn3c2SC(F)(F)F)c1 [Example 200] | < 750
20 | ≥ 10 | ≥ 10 | < 750 | 5000 to 8000 | < 10 | 80 to 90 | < 750 | CNC(=O)c1ccc(NCC#Cc2nc3c(N[C@H]4C[C@@H]5CC[C@@H](N5)[C@H]4F)cccn3c2SC(F)(F)F)c(OC)c1 [Example 201] | < 750
